Measured values taken from ChEMBL document CHEMBL1201862, “PubChem BioAssay data set” (2004).
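The compound was tested at five concentrations on cells cultured in 96-well plates, with a 48-hour exposure period. GI50: concentration for 50% inhibition of growth.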 The source made the active and inactive calls. No stated cut-off is given here; in the data, active = GI50 up to about 1.1 µM and inactive = higher. Square brackets hold non-standard residues; d marks the D form. Peptide text beside a SMILES is read from it. * marks the point of attachment. NMeV = CN[C@H](C(=O)O)C(C)C; X28 = COc1ccc(CN*)c(OC)c1; Octanoyl = CCCCCCCC(=O)*; dNMeA = CN[C@H](C)C(=O)O

Columns and labels:
Assay in all cases: NCI tumour cell line growth inhibition, 48 h
OVCAR-5 = system: OVCAR-5
NCI-H460 = system: NCI-H460
SNB-19 = system: SNB-19
UO-31 = system: UO-31
IGROV-1 = system: IGROV-1
HL-60 = system: HL-60
OVCAR-3 = system: OVCAR-3
SK-MEL-28 = system: SK-MEL-28
HCT-116 = system: HCT-116
NCI-H522 = system: NCI-H522
MDA-MB-435 = system: MDA-MB-435
UACC-257 = system: UACC-257
NCI-H226 = system: NCI-H226
SK-MEL-5 = system: SK-MEL-5
SF-539 = system: SF-539
HCC 2998 = system: HCC 2998
SNB-75 = system: SNB-75
BT-549 = system: BT-549
RPMI-8226 = system: RPMI-8226
M14 = system: M14

Row | Structure (SMILES) | GI50 (OVCAR-5) | GI50 (NCI-H460) | GI50 (SNB-19) | GI50 (UO-31) | GI50 (IGROV-1) | GI50 (HL-60) | GI50 (OVCAR-3) | GI50 (SK-MEL-28) | GI50 (HCT-116) | GI50 (NCI-H522) | GI50 (MDA-MB-435) | GI50 (UACC-257) | GI50 (NCI-H226) | GI50 (SK-MEL-5) | GI50 (SF-539) | GI50 (HCC 2998) | GI50 (SNB-75) | GI50 (BT-549) | GI50 (RPMI-8226) | GI50 (M14)
1 | CCOC(=O)Cn1nc2ccc(Nc3nc4ccccc4nc3C(=O)OCC)cc2n1 | > 100 µM (inactive) | > 100 µM (inactive) | 34 µM (inactive) | 20.8 µM (inactive) | 69.7 µM (inactive) | > 100 µM (inactive) | 63.4 µM (inactive) | > 100 µM (inactive) | 55 µM (inactive) | 57 µM (inactive) | > 100 µM (inactive) | > 100 µM (inactive) | 59.8 µM (inactive) | > 100 µM (inactive) | 23.5 µM (inactive) | 83 µM (inactive) | 16.8 µM (inactive) | > 100 µM (inactive) | > 100 µM (inactive) | > 100 µM (inactive)
2 | C=CCN1C(=O)CS/C1=N\NC(=O)CSc1nc2ccccc2c(=O)n1CC | 84.1 µM (inactive) | 5.37 µM (inactive) | > 100 µM (inactive) | 41.9 µM (inactive) | > 100 µM (inactive) | > 100 µM (inactive) | > 100 µM (inactive) | > 100 µM (inactive) | > 100 µM (inactive) | > 100 µM (inactive) | > 100 µM (inactive) | > 100 µM (inactive) | > 100 µM (inactive) | > 100 µM (inactive) | > 100 µM (inactive) | > 100 µM (inactive) | > 100 µM (inactive) | > 100 µM (inactive) | > 100 µM (inactive) | > 100 µM (inactive)
3 | O=C(NC1(c2cc3ccccc3s2)CCCCC1)C1CCC1 | > 100 µM (inactive) | > 100 µM (inactive) | > 100 µM (inactive) | > 100 µM (inactive) | > 100 µM (inactive) | > 100 µM (inactive) | > 100 µM (inactive) | 66.8 µM (inactive) | > 100 µM (inactive) | > 100 µM (inactive) | > 100 µM (inactive) | > 100 µM (inactive) | > 100 µM (inactive) | > 100 µM (inactive) | 23.1 µM (inactive) | > 100 µM (inactive) | 46.7 µM (inactive) | > 100 µM (inactive) | > 100 µM (inactive) | > 100 µM (inactive)
4 | COC(=O)CCc1ccc2c(c1)CCC2 | > 100 µM (inactive) | > 100 µM (inactive) | > 100 µM (inactive) | > 100 µM (inactive) | > 100 µM (inactive) | > 100 µM (inactive) | > 100 µM (inactive) | > 100 µM (inactive) | > 100 µM (inactive) | > 100 µM (inactive) | > 100 µM (inactive) | > 100 µM (inactive) | > 100 µM (inactive) | > 100 µM (inactive) | > 100 µM (inactive) | > 100 µM (inactive) | > 100 µM (inactive) | > 100 µM (inactive) | > 100 µM (inactive) | > 100 µM (inactive)
5 | C/C(=N\NC(=S)N1CCCCCC1)c1ccccn1 | 0.897 µM (active) | 0.0164 µM (active) | 0.0521 µM (active) | 0.543 µM (active) | 0.00162 µM (active) | 0.0021 µM (active) | < 0.001 µM (active) | 1.18 µM (inactive) | 0.00207 µM (active) | 0.0624 µM (active) | 0.601 µM (active) | 0.0128 µM (active) | 0.565 µM (active) | 0.00805 µM (active) | 0.0506 µM (active) | 0.158 µM (active) | 0.0692 µM (active) | 0.17 µM (active) | 0.00405 µM (active) | 0.0266 µM (active)
6 | C=C(CN(C)C)C(=O)c1ccc(C)cc1C | 14.1 µM (inactive) | 18.8 µM (inactive) | 32.7 µM (inactive) | 12.2 µM (inactive) | 7.23 µM (inactive) | 0.46 µM (active) | 7.87 µM (inactive) | 6.1 µM (inactive) | 5.61 µM (inactive) | 2.9 µM (inactive) | 5.94 µM (inactive) | 9.51 µM (inactive) | 15.5 µM (inactive) | 14.1 µM (inactive) | 12.7 µM (inactive) | 17.1 µM (inactive) | 16.5 µM (inactive) | 3.59 µM (inactive) | 1.16 µM (inactive) | 5.93 µM (inactive)
7 | C[C@]12CC[C@H]3[C@@H](CC[C@]4(O)C[C@@H](O)CC[C@]34C=O)[C@@]1(O)CC[C@@H]2C1=CC(=O)OC1 [STROPHANTHIDIN] | 1.42 µM (inactive) | 0.195 µM (active) | 1.58 µM (inactive) | 0.444 µM (active) | 0.453 µM (active) | 0.347 µM (active) | 0.421 µM (active) | 1.73 µM (inactive) | 0.259 µM (active) | 0.0942 µM (active) | 0.522 µM (active) | 0.766 µM (active) | 1.23 µM (inactive) | 0.288 µM (active) | 0.294 µM (active) | 4.27 µM (inactive) | 1.14 µM (inactive) | 0.355 µM (active) | 0.506 µM (active) | 1.07 µM (active)
8 | CCCCCCCC(=O)N[C@H](C(=O)N[C@H](C(=O)N(C)[C@H](C(=O)N1CCC[C@H]1C(=O)N(C)[C@H](C)C(=O)NCc1ccc(OC)cc1OC)C(C)C)C(C)C)C(C)C (Octanoyl-VV[NMeV]P[dNMeA]-X28) | 25.5 µM (inactive) | 8.34 µM (inactive) | 12.7 µM (inactive) | 17.6 µM (inactive) | 3.75 µM (inactive) | 3.68 µM (inactive) | 4.2 µM (inactive) | 8.77 µM (inactive) | 5.93 µM (inactive) | 7.21 µM (inactive) | 5.22 µM (inactive) | 5.21 µM (inactive) | 4.95 µM (inactive) | 3.3 µM (inactive) | 18.8 µM (inactive) | 13.4 µM (inactive) | 21.3 µM (inactive) | 11.8 µM (inactive) | 3.02 µM (inactive) | 7.82 µM (inactive)
9 | O=c1cc(-c2ccccc2)[nH]c2ccc(N3CCCC3)cc12 | 31.6 µM (inactive) | 0.0275 µM (active) | 0.0217 µM (active) | > 100 µM (inactive) | 0.267 µM (active) | < 0.01 µM (active) | 0.0272 µM (active) | 0.0533 µM (active) | < 0.0113 µM (active) | < 0.01 µM (active) | < 0.01 µM (active) | 30.4 µM (inactive) | 0.0266 µM (active) | 0.0366 µM (active) | 0.0123 µM (active) | 0.172 µM (active) | 40.6 µM (inactive) | > 100 µM (inactive) | 0.0366 µM (active) | < 0.0123 µM (active)
10 | CCOC(=O)c1c2c(n(-c3ccc(OC)cc3)c1C)C(=O)C(=O)c1ccccc1-2 | 1.88 µM (inactive) | 1.43 µM (inactive) | 1.36 µM (inactive) | 2.12 µM (inactive) | 2.52 µM (inactive) | 0.0261 µM (active) | 0.419 µM (active) | 2.12 µM (inactive) | 1.33 µM (inactive) | 2.71 µM (inactive) | 0.19 µM (active) | 0.491 µM (active) | 1.75 µM (inactive) | 1.06 µM (active) | 0.711 µM (active) | 1.73 µM (inactive) | 2.16 µM (inactive) | 2.02 µM (inactive) | 0.647 µM (active) | 1.59 µM (inactive)
11 | Nc1ncnc2c1ccn2C1OC2COP(=O)(O)OC2C1O (centres undefined) | 0.849 µM (active) | 0.168 µM (active) | 1.61 µM (inactive) | 0.196 µM (active) | 0.488 µM (active) | < 0.0476 µM (active) | 0.275 µM (active) | 0.515 µM (active) | 0.17 µM (active) | 0.14 µM (active) | 0.273 µM (active) | 1.26 µM (inactive) | 2.9 µM (inactive) | 0.327 µM (active) | 3.51 µM (inactive) | 0.942 µM (active) | 0.231 µM (active) | 0.482 µM (active) | 0.124 µM (active) | 0.069 µM (active)
12 | Cn1c2ccccc2c(=NNc2ccc(C(=O)O)cc2)c2ccccc21 | 17.8 µM (inactive) | 16.1 µM (inactive) | 21.8 µM (inactive) | 15.1 µM (inactive) | 20.1 µM (inactive) | 14.6 µM (inactive) | 16.5 µM (inactive) | 26 µM (inactive) | 7.5 µM (inactive) | 10.7 µM (inactive) | 19 µM (inactive) | 30.1 µM (inactive) | 17.7 µM (inactive) | 17.6 µM (inactive) | 19.2 µM (inactive) | 8.38 µM (inactive) | 19.8 µM (inactive) | 21.6 µM (inactive) | 12.9 µM (inactive) | 16.9 µM (inactive)
13 | Cc1nc2c(Cl)cc(Cl)cc2c2c1CCO2 | > 100 µM (inactive) | > 100 µM (inactive) | > 100 µM (inactive) | 67 µM (inactive) | > 100 µM (inactive) | 65.3 µM (inactive) |  | > 100 µM (inactive) | > 100 µM (inactive) | > 100 µM (inactive) | > 100 µM (inactive) | > 100 µM (inactive) | > 100 µM (inactive) | > 100 µM (inactive) | > 100 µM (inactive) | > 100 µM (inactive) | 60.8 µM (inactive) | > 100 µM (inactive) | > 100 µM (inactive) | > 100 µM (inactive)
14 | CC[C@@]1(O)C(=O)OCc2c1cc1n(c2=O)Cc2c-1nc1ccccc1c2/C=N\NC(=O)CN | 3.24 µM (inactive) | 0.042 µM (active) | < 0.0397 µM (active) | 0.33 µM (active) | 2.59 µM (inactive) | 0.145 µM (active) | 6.9 µM (inactive) | 23 µM (inactive) | 0.419 µM (active) | 1.02 µM (active) | 1.61 µM (inactive) | 2.49 µM (inactive) | 0.188 µM (active) | 0.252 µM (active) | 0.0258 µM (active) | 2.21 µM (inactive) | 0.133 µM (active) | 0.627 µM (active) | 0.147 µM (active) | 0.126 µM (active)
